The structures appear in SMILES notation.

Holding throughout (type): cell-based
In test [1] the target is T1, AGTR1 (Homo sapiens, UniProt P30556).
T1 construct: host or cells: Pathunter CHO-K1 AGTR1 β-arrestin cell line (CHO-K1)
T1 sequence (P30556 1-359): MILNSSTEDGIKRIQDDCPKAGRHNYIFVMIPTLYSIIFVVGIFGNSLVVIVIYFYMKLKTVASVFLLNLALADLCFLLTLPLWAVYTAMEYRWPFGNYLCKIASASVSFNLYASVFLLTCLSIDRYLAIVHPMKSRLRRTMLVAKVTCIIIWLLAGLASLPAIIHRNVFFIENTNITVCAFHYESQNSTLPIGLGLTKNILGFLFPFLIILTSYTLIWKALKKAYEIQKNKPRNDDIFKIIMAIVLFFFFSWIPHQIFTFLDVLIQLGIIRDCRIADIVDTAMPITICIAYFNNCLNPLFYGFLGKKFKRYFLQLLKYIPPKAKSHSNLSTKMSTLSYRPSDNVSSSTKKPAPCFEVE
As to the kind of experiment: DiscoveRx IP1 accumulation assay (HTRF), agonist mode, Pathunter CHO-K1 AGTR1 β-arrestin cell line. The following applies: for EC50: read-out: IP-1 EC50. The procedure: In one aspect of the invention, signaling bias of compounds was assessed by comparing the relative activity of compounds to activate both the β-arrestin and Gq signaling pathways. In order to confirm signaling bias, compounds were studied in two different assay formats.
DiscoveRx β-arrestin2 Recruitment and IP1 Assays
Gq activation can be assessed by measuring the accumulation of inositol phosphates (e.g. IP3, IP1) that are liberated following activation of phospholipase C by Gq (Thomsen, Frazer et al. 2005). In the current invention we have utilized the DiscoveRx Pathunter CHO-K1 AGTR1 β-arrestin cell line to also measure IP1 accumulation in response to compounds. IP1 accumulation was measured in both agonist and antagonist modes. In agonist mode, cells are plated as above 14-16 hours before the experiment. The medium is then removed and compounds at varying concentrations added in a final volume of 20 μl. The cells are incubated at 37° C. for 90 min. IP1 accumulation detected using a commercial HTRF assay according to manufacturer's instructions (Cisbio, Bedford, MA). Specifically, 4 μl of D2-conjugate solution (diluted 1:20 in Cisbio HTRF assay buffer) is added to each well, followed by the addition of 4 μl of anti-IP1 cryptate diluted 1:20 in HTRF assay buffer and the plates incubated for 20 min at room temperature. 14 μl from each well is measured using an Envision multi-label reader and data processed using Toolset for Runmaster QCMulti. Concentration-response curves are fitted and EC50s (agonist mode) and IC50s (antagonist mode) estimated using a 4-parameter logistic equation. Compound activities are reported as a relative percentage to the maximal effect of All in the assays.
(In general: Time-resolved FRET reads energy transfer from a long-lived donor to a nearby acceptor.)

In test [2] the target is T1, AGTR1. The experiment in a line: DiscoveRx β-arrestin2 recruitment assay (enzyme complementation, Pathunter CHO-K1 AGTR1 β-arrestin cell line). The following applies: DiscoveRx β-arrestin2 recruitment; for DiscoveRx β-arrestin2 Ymax (%): maximal response. Here is the method: In one aspect of the invention, signaling bias of compounds was assessed by comparing the relative activity of compounds to activate both the β-arrestin and Gq signaling pathways. In order to confirm signaling bias, compounds were studied in two different assay formats. DiscoveRx β-arrestin2 Recruitment and IP1 Assays β-arrestin2 recruitment to activated receptors can be assessed using an enzyme complementation method (Zhao, Jones et al. 2008). […] Cells (5000/well) were plated into 1536 well plates (Cellocoat plates, Greiner Bio One, Monroe, NC) 14-16 hours before each experiment in 20 μl DMEM/F12 medium (Thermo-Fisher Scientific, Carlsbad, CA) containing heat-inactivated 1% fetal bovine serum. Subsequently, the compounds of interest were added at varying concentrations to the wells in a volume of 200 nl and the cells incubated for 90 min at 37° C. The detection reagent (10 μl) was added to each well and the plates incubated at room temperature for 1 hour before measurement of chemiluminescence using an EnVision Multilabel Reader (Perkin-Elmer, Waltham, MA). The data are processed using Toolset for Runmaster QCMulti. Concentration-response curves are fitted and EC50s (agonist mode) and IC50s (antagonist mode) estimated using a 4-parameter logistic equation. Compound activities are reported as a relative percentage to the maximal effect of All in the assays.
(Recruitment of arrestin is a read-out of receptor activation apart from second messengers.)

The next test deals with T2, hAT1R (Homo sapiens, UniProt P30556).
T2 sequence (P30556 1-359): T1 sequence (P30556 1-359)
As to the kind of experiment: BRET β-arrestin2 biosensor assay, higher receptor expression (hAT1R 5 ng/well), HEK293 cells. The following applies: for EC50: High AT1R Expression. For orientation: In BRET a luciferase serves as donor, and the signal depends on an acceptor being close.

For orientation: EC50 means the concentration that produces a half-maximal response. With `CCCC1=NC2(CCOC2)C(=O)N1Cc1ccc(-c2cc(-c3ccccc3)ccc2-c2nn[nH]n2)cc1` (single isomer, unassigned) [Example 158, 3-((6′-(2H-tetrazol-5-yl)-[1,1′:3′,1″-terphenyl]-4-yl)methyl)-2-propyl-7-oxa-1,3-diazaspiro[4.4]non-1-en-4-one], at AGTR1 [1], the “IP-1 Ymax (%)” value is 8.6% and the EC50 worked out at 214 nM. In addition, on AGTR1 [2], the EC50 was 191 nM and the “DiscoveRx β-arrestin2 Ymax (%)” value is 41.6%.
As to `CCc1nc2c(C)cc(C)nc2n1Cc1ccc(-c2cc(-c3ccsc3)ccc2-c2nn[nH]n2)cc1` [Example 55], at AGTR1 [1], the “IP-1 Ymax (%)” value amounted to 6.8% and the EC50 amounted to 26.8 nM. In addition, at AGTR1 [2], the EC50 stood at 9.3 nM and the “DiscoveRx β-arrestin2 Ymax (%)” value is recorded as 44.9%.
As to `CCc1nc2c(C)cc(C)nc2n1Cc1ccc(-c2cc(-c3ccc(C)cc3)ccc2-c2nn[nH]n2)cc1` [Example 18], at AGTR1 [1], the “IP-1 Ymax (%)” value amounted to 15.4% and the EC50 worked out at 499 nM. At AGTR1 [2], it took 140 nM to reach a half-maximal effect (EC50) and the “DiscoveRx β-arrestin2 Ymax (%)” value is reported as 54.2%.
In the same order, the values of `CCc1nc2c(C)cc(C)nc2n1Cc1ccc(-c2cc(-c3ccc(N(C)C)cc3)ccc2-c2nn[nH]n2)cc1` [Example 15] are 2.4%, 21.7 nM, 22.6 nM and 14.9%.
In the same order, the values of `CCc1nc2c(C)cc(C)nc2n1Cc1ccc(-c2cc(Nc3ccc(F)cc3)ccc2-c2nn[nH]n2)cc1` [Example 26, 4′-((2-ethyl-5,7-dimethyl-3H-imidazo[4,5-b]pyridin-3-yl)methyl)-N-(4-fluorophenyl)-6-(2H-tetrazol-5-yl)-[1,1′-biphenyl]-3-amine] are 7.5%, 24.2 nM, 10.8 nM and 25.0%.
Turning to `CCc1nc2c(C)cc(C)nc2n1Cc1ccc(-c2cc(N3CCC[C@@H](C)C3)ccc2-c2nn[nH]n2)cc1` [Example 86], the concentration for a half-maximal effect (EC50) at AGTR1 [1] is above 100000 nM; at AGTR1 [2] it was 159 nM. The “DiscoveRx β-arrestin2 Ymax (%)” value at AGTR1 [2] came to 38.0%.
Consider `CCc1nc2c(C)cc(C)nc2n1Cc1ccc(-c2cc(N3CCCC3=O)ccc2-c2nn[nH]n2)cc1` [Example 28, 1-(4′-((2-ethyl-5,7-dimethyl-3H-imidazo[4,5-b]pyridin-3-yl)methyl)-6-(2H-tetrazol-5-yl)-[1,1′-biphenyl]-3-yl)pyrrolidin-2-one], for which, on AGTR1 [1], the “IP-1 Ymax (%)” value is 2.3% and the concentration for a half-maximal effect (EC50) is 3780 nM. At AGTR1 [2], the EC50 turned out to be 322 nM and the “DiscoveRx β-arrestin2 Ymax (%)” value is 11.9%.
For `CCCCC1=NC2(CCCC2)C(=O)N1Cc1ccc(-c2cc(N3CC4(CC4)c4ccccc43)ccc2-c2nn[nH]n2)cc1` [Example 108] the same measures were 12.8%, 219 nM, 42.3 nM and 38.8%.
On to `CCCCC1=NC2(CCCC2)C(=O)N1Cc1ccc(-c2cc(N3CCC(C)C3)ccc2-c2nn[nH]n2)cc1` (centres unmarked) [Example 103], for which the values for the EC50 on AGTR1 [1] and on AGTR1 [2] were above 100000 nM and 112 nM, respectively. For the same molecule, at AGTR1 [2], the “DiscoveRx β-arrestin2 Ymax (%)” value was determined as 8.8%.
Turning to `CCc1nc2c(C)cc(C)nc2n1Cc1ccc(-c2cc(N3CCC[C@H](C)C3)ccc2-c2nn[nH]n2)cc1` [Example 88], the EC50 at AGTR1 [1] is above 100000 nM; on AGTR1 [2], 8.1 nM. The “DiscoveRx β-arrestin2 Ymax (%)” value at AGTR1 [2] worked out at 22.1%.
Regarding `CCc1nc2c(C)cc(C)nc2n1Cc1ccc(-c2cc(C3CCCO3)ccc2-c2nn[nH]n2)cc1` (single isomer, unassigned) [Example 73, 2-ethyl-5,7-dimethyl-3-((5′-(tetrahydrofuran-2-yl)-2′-(2H-tetrazol-5-yl)-[1,1′-biphenyl]-4-yl)methyl)-3H-imidazo[4,5-b]pyridine], at AGTR1 [1], the “IP-1 Ymax (%)” value was found to be 11.6% and the EC50 was 5940 nM. Besides, at AGTR1 [2], the EC50 stood at 108 nM and the “DiscoveRx β-arrestin2 Ymax (%)” value is on record as 26.4%.
In the same order, the values of `CCc1nc2c(C)cc(C)nc2n1Cc1ccc(-c2cc(-c3ccccc3)ccc2C(=O)O)nc1` [Example 201, 3-(5-((2-ethyl-5,7-dimethyl-3H-imidazo[4,5-b]pyridin-3-yl)methyl)pyridin-2-yl)biphenyl-4-carboxylic acid] are 5.6%, 454 nM, 348 nM and 7.0%.
`CCc1nc2c(C)cc(C)nc2n1Cc1ccc(-c2cc(C3CCCCN3)ccc2-c2nn[nH]n2)cc1` (single isomer, unassigned) [Example 76, 2-ethyl-5,7-dimethyl-3-((5′-(piperidin-2-yl)-2′-(2H-tetrazol-5-yl)-[1,1′-biphenyl]-4-yl)methyl)-3H-imidazo[4,5-b]pyridine]: the EC50 at AGTR1 [1] was above 100000 nM. In addition, at AGTR1 [2], a half-maximal response (EC50) required 840 nM and the “DiscoveRx β-arrestin2 Ymax (%)” value is reported as 13.2%.
Take `CCc1nc2c(C)cc(C)nc2n1Cc1ccc(-c2cc(-c3ccc4c(ccn4C)c3)ccc2-c2nn[nH]n2)cc1` [Example 17]: on AGTR1 [1], the “IP-1 Ymax (%)” value was found to be 3.3% and the EC50 amounted to 8.7 nM. Moreover, at AGTR1 [2], the midpoint of the response, the EC50, lay at 15.7 nM and the “DiscoveRx β-arrestin2 Ymax (%)” value came to 11.9%.
For `CCCCC1=NC2(CCCC2)C(=O)N1Cc1ccc(-c2cc(-c3ccccn3)ccc2-c2nn[nH]n2)cc1` [Example 140] the same measures were 4.5%, 26.1 nM, 9.7 nM and 22.1%.
Turning to `CCCCC1=NC2(CCCC2)C(=O)N1Cc1ccc(-c2cc(-c3cncc(OC)c3)ccc2-c2nn[nH]n2)cc1` [Example 132], at hAT1R, the “BRET β-Arrestin2 High AT1R Expression Ymax (%)” value was found to be 22.0% and a half-maximal effect (EC50) was put at 496 nM. Besides, on AGTR1 [2], the response was half-maximal at 87.2 nM (EC50) and the “DiscoveRx β-arrestin2 Ymax (%)” value is reported as 14.1%.
For `CCCCc1nc(Cl)c(C(=O)O)n1Cc1ccc(-c2cc(N3CCc4ccccc43)ccc2-c2noc(=O)[nH]2)cc1` [Example 406, 2-butyl-4-chloro-1-((5′-(indolin-1-yl)-2′-(5-oxo-4,5-dihydro-1,2,4-oxadiazol-3-yl)-[1,1′-biphenyl]-4-yl)methyl)-1H-imidazole-5-carboxylic acid] the same measures were 97.5%, 10.6 nM, 9 nM and 33.9%.
On to `CCc1nc2c(C)cc(C)nc2n1Cc1ccc(-c2cc(N3CC[C@H](C)C3)ccc2-c2nn[nH]n2)cc1` [Example 89], for which the EC50 at AGTR1 [1] is above 100000 nM. On AGTR1 [2], the EC50 turned out to be 49.4 nM and the “DiscoveRx β-arrestin2 Ymax (%)” value was found to be 22.5%.
On to `CCc1nc2c(C)cc(C)nc2n1Cc1ccc(-c2cc(N3CCCCCC3)ccc2-c2nn[nH]n2)cc1` [Example 95, 3-((5′-(azepan-1-yl)-2′-(2H-tetrazol-5-yl)-[1,1′-biphenyl]-4-yl)methyl)-2-ethyl-5,7-dimethyl-3H-imidazo[4,5-b]pyridine], for which, at AGTR1 [1], the “IP-1 Ymax (%)” value was 6.3% and the EC50 was 249 nM. On AGTR1 [2], the midpoint of the response, the EC50, lay at 137 nM and the “DiscoveRx β-arrestin2 Ymax (%)” value came out at 21.0%.
As to `CCCCC1=NC2(CCCC2)C(=O)N1Cc1ccc(-c2cc(N3CCC(C)(C)CC3)ccc2-c2nn[nH]n2)cc1` [Example 101], the EC50 at AGTR1 [1] is above 100000 nM. For the same molecule, at AGTR1 [2], a half-maximal response (EC50) required 30 nM and the “DiscoveRx β-arrestin2 Ymax (%)” value was determined as 21.4%.

For the origin of these results see patent US12037324B2, “Biarylmethyl heterocycles” (Université de Montréal, priority 2016, dated 2024).
